Data published in patent US9695155B2, “Herbicidal substituted pyrimidinyloxy benzene compounds” (E. I. DU PONT DE NEMOURS AND COMPANY, priority 2013, dated 2017).

How the values were obtained:
[1] = system: wheat; test: Test A preemergence; type: in vivo, Triticum aestivum
From the text: (§1) Seeds of plant species selected from barnyardgrass (Echinochloa crus-galli), kochia (Kochia scoparia), ragweed (common ragweed, Ambrosia elatior), Italian ryegrass (Lolium multiflorum), large (Lg) crabgrass (Digitaria sanguinalis), giant foxtail (Setaria faberii), morningglory (Ipomoea spp.), pigweed (Amaranthus retroflexus), velvetleaf (Abutilon theophrasti), wheat (Triticum aestivum), and corn (Zea mays) were planted into a blend of loam soil and sand and treated preemergence with a directed soil spray using test chemicals formulated in a non-phytotoxic solvent mixture which included a surfactant.
(§2) At the same time, plants selected from these crop and weed species and also blackgrass (Alopecurus myosuroides), and galium (catchweed bedstraw, Galium aparine) were planted in pots containing the same blend of loam soil and sand and treated with postemergence applications of test chemicals formulated in the same manner. Plants ranged in height from 2 to 10 cm and were in the one- to two-leaf stage for the postemergence treatment. Treated plants and untreated controls were maintained in a greenhouse for approximately 10 days, after which time all treated plants were compared to untreated controls and visually evaluated for injury. Plant response ratings, summarized in Table A, are based on a 0 to 100 scale where 0 is no effect and 100 is complete control. A dash (-) response means no test result.

[2] = system: giant foxtail; test: Test A preemergence; type: in vivo, Setaria faberii
From the text: as §1, §2

[3] = system: giant foxtail; test: Test A postemergence; type: in vivo, Setaria faberii
From the text: as §1, §2

[4] = system: velvetleaf; test: Test A postemergence; type: in vivo, Abutilon theophrasti
From the text: as §1, §2

[5] = system: pigweed; test: Test A preemergence; type: in vivo, Amaranthus retroflexus
From the text: as §1, §2

[6] = system: barnyardgrass; test: Test A preemergence; type: in vivo, Echinochloa crus-galli
From the text: as §1, §2

[7] = system: morningglory; test: Test A preemergence; type: in vivo, Ipomoea spp.
From the text: as §1, §2

[8] = system: large (Lg) crabgrass; test: Test A preemergence; type: in vivo, Digitaria sanguinalis
From the text: as §1, §2

[9] = system: barnyardgrass; test: Test A postemergence; type: in vivo, Echinochloa crus-galli
From the text: as §1, §2

[10] = system: wheat; test: Test A postemergence; type: in vivo, Triticum aestivum
From the text: as §1, §2

[11] = system: large (Lg) crabgrass; test: Test A postemergence; type: in vivo, Digitaria sanguinalis
From the text: as §1, §2

[12] = system: morningglory; test: Test A postemergence; type: in vivo, Ipomoea spp.
From the text: as §1, §2

[13] = system: corn; test: Test A postemergence; type: in vivo, Zea mays
From the text: as §1, §2

[14] = system: pigweed; test: Test A postemergence; type: in vivo, Amaranthus retroflexus
From the text: as §1, §2

[15] = system: corn; test: Test A preemergence; type: in vivo, Zea mays
From the text: as §1, §2

[16] = system: velvetleaf; test: Test A preemergence; type: in vivo, Abutilon theophrasti
From the text: as §1, §2

[17] = 500 g ai/ha, 0 to 100 scale where 0 is no effect and 100 is complete control
[18] = 1000 g ai/ha, 0 to 100 scale, 0 no effect, 100 complete control, approx. 10 days
[19] = 1000 g ai/ha, 0 to 100 scale, 0 no effect, 100 complete control

SMILES	Wheat plant response rating [1, 18]	Foxtail, Giant plant response rating [2, 18]	Plant response rating, Foxtail, Giant [3, 19]	Plant response rating, Velvetleaf [4, 19]	Pigweed plant response rating [5, 18]	Morningglory plant response rating [7, 18]	Plant response rating, Barnyardgrass [9, 19]	Plant response rating, Wheat [10, 19]	Plant response rating, Crabgrass, Large [11, 19]	Plant response rating, Morningglory [12, 19]	Plant response rating, Corn [13, 19]	Plant response rating, Pigweed [14, 19]	Velvetleaf plant response rating [16, 18]	Barnyardgrass plant response rating [6, 18]	Crabgrass, Large plant response rating [8, 18]	Corn plant response rating [15, 18]	further results
Fc1cccc(Oc2ncc(Cl)cn2)c1-n1cccn1 [Compound 176]																	Wheat plant response rating [1, 17]: 0; Foxtail, Giant plant response rating [2, 17]: 100; Plant response rating, Foxtail, Giant [3, 17]: 50; Plant response rating, Velvetleaf [4, 17]: 90; Pigweed plant response rating [5, 17]: 100; Barnyardgrass plant response rating [6, 17]: 60; Morningglory plant response rating [7, 17]: 0; Crabgrass, Large plant response rating [8, 17]: 100; Plant response rating, Barnyardgrass [9, 17]: 40; Plant response rating, Wheat [10, 17]: 10; Plant response rating, Crabgrass, Large [11, 17]: 40; Plant response rating, Morningglory [12, 17]: 80; Plant response rating, Corn [13, 17]: 20; Plant response rating, Pigweed [14, 17]: 100; Corn plant response rating [15, 17]: 0; Velvetleaf plant response rating [16, 17]: 90
CC(=O)Oc1cccc(Oc2ncc(Cl)cn2)c1-n1cc(Br)cn1 [Compound 67]	0	10	10	70	100	0	20	0	10	10	10	100	10				Plant response rating, Barnyardgrass [6, 19]: 0; Plant response rating, Crabgrass, Large [8, 19]: 20; Plant response rating, Corn [15, 19]: 0
Fc1cc(F)cc(-c2cn(-c3c(Br)cccc3Oc3ncc(Cl)cn3)nn2)c1 [Compound 303]	0	50	20	70	80	0	20	0	20	30	10	90	0	0	60	0	
Clc1cnc(Oc2ccccc2-n2cccn2)nc1 [Compound 12, 5-chloro-2-[2-(1H-pyrazol-1-yl)phenoxy]pyrimidine]																	plant injury at 1000 g/ha ([1]; Triticum aestivum, pre-emergence, 240 h, 1000 g ai/ha, 0 to 100 scale, 0 no effect, 100 complete control, approx. 10 days, read-out: Wheat plant response rating): 20%; pest or weed control at 1000 g/ha ([2]; Setaria faberi, pre-emergence, 240 h, 1000 g ai/ha, 0 to 100 scale, 0 no effect, 100 complete control, approx. 10 days, read-out: Foxtail, Giant plant response rating): 100%; pest or weed control at 1000 g/ha ([3]; Setaria faberi, post-emergence, 240 h, 1000 g ai/ha, 0 to 100 scale, 0 no effect, 100 complete control, read-out: Plant response rating Foxtail, Giant): 80%; pest or weed control at 1000 g/ha ([4]; Abutilon theophrasti, post-emergence, 240 h, 1000 g ai/ha, 0 to 100 scale, 0 no effect, 100 complete control, read-out: Plant response rating Velvetleaf): 100%; pest or weed control at 1000 g/ha ([5]; Amaranthus retroflexus, pre-emergence, 240 h, 1000 g ai/ha, 0 to 100 scale, 0 no effect, 100 complete control, approx. 10 days, read-out: Pigweed plant response rating): 100%; pest or weed control at 1000 g/ha ([6]; Echinochloa crus-galli, pre-emergence, 240 h, 1000 g ai/ha, 0 to 100 scale, 0 no effect, 100 complete control, read-out: Plant response rating, Barnyardgrass): 100%; pest or weed control at 1000 g/ha ([7]; Ipomoea, pre-emergence, 240 h, 1000 g ai/ha, 0 to 100 scale, 0 no effect, 100 complete control, approx. 10 days, read-out: Morningglory plant response rating): 0%; pest or weed control at 1000 g/ha ([8]; Digitaria sanguinalis, pre-emergence, 240 h, 1000 g ai/ha, 0 to 100 scale, 0 no effect, 100 complete control, read-out: Plant response rating, Crabgrass, Large): 100%; pest or weed control at 1000 g/ha ([9]; Echinochloa crus-galli, post-emergence, 240 h, 1000 g ai/ha, 0 to 100 scale, 0 no effect, 100 complete control, read-out: Plant response rating Barnyardgrass): 90%; plant injury at 1000 g/ha ([10]; Triticum aestivum, post-emergence, 240 h, 1000 g ai/ha, 0 to 100 scale, 0 no effect, 100 complete control, read-out: Plant response rating Wheat): 20%; pest or weed control at 1000 g/ha ([11]; Digitaria sanguinalis, post-emergence, 240 h, 1000 g ai/ha, 0 to 100 scale, 0 no effect, 100 complete control, read-out: Plant response rating Crabgrass, Large): 80%; pest or weed control at 1000 g/ha ([12]; Ipomoea, post-emergence, 240 h, 1000 g ai/ha, 0 to 100 scale, 0 no effect, 100 complete control, read-out: Plant response rating Morningglory): 90%; plant injury at 1000 g/ha ([13]; Zea mays, post-emergence, 240 h, 1000 g ai/ha, 0 to 100 scale, 0 no effect, 100 complete control, read-out: Plant response rating Corn): 30%; pest or weed control at 1000 g/ha ([14]; Amaranthus retroflexus, post-emergence, 240 h, 1000 g ai/ha, 0 to 100 scale, 0 no effect, 100 complete control, read-out: Plant response rating Pigweed): 100%; Corn plant response rating (crop injury, 0 = no effect, 100 = complete kill) at 1000 g/ha ([15]; Zea mays, pre-emergence, 240 h, 1000 g ai/ha, 0 to 100 scale, 0 no effect, 100 complete control): 0%; pest or weed control at 1000 g/ha ([16]; Abutilon theophrasti, pre-emergence, 240 h, 1000 g ai/ha, 0 to 100 scale, 0 no effect, 100 complete control, approx. 10 days, read-out: Velvetleaf plant response rating): 100%
COc1ccc(I)c(-n2cc(Br)cn2)c1Oc1ncc(Cl)cn1 [Compound 207]	0	50	60	30	0	0	10	0	40	30	0	70	30	0	50	0	
Oc1cccc(Oc2ncc(Cl)cn2)c1-n1cc(Cl)cn1 [Compound 229]	0	0	0	0	100	0	0	0	0	0	0	60	0	0	10	0	
N#CCOc1cccc(Oc2ncc(Cl)cn2)c1-n1cc(Br)cn1 [Compound 70]	0	60	60	70	90	10	80	0	60	20	10	70	70				Plant response rating, Barnyardgrass [6, 19]: 50; Plant response rating, Crabgrass, Large [8, 19]: 90; Plant response rating, Corn [15, 19]: 0
